According to US9353116B2, “Methods and compositions for kinase inhibition” (THE REGENTS OF THE UNIVERSITY OF CALIFORNIA, priority 2010, dated 2016):
Where two headings read alike, the source gives them in different places.

Columns and labels:
Type in all cases: biochemical
WT c-Src [1] = biological target: T1, WT c-Src (Gallus gallus (Chicken), UniProt P00523); experiment: In vitro kinase assay, WT c-Src
Protocol: (§1) In vitro kinase assays for c-Src variants were performed in 50 mM Tris (pH 8.0), 10 mM MgCl2 and 1 mg/mL BSA. When obtaining kinetic parameters (kcat, Km) kinase and peptide substrate (IYGEFKKK) (SEQ ID NO:51) concentrations were 2 nM and 500 μM, respectively, while ATP concentrations ranged from 2000-0.655 μM. Addition of nonradioactive ATP supplemented with ^32P ATP (3,000 Ci/mmol, NEN) was used to initiate kinase reactions. Time points were selected such that product formation never exceeded 10%. Reactions were quenched by spotting 3 μL quantities onto phosphocellulose sheets (P81, Whatman). Afterwards, the sheets were washed 3×5 minutes in 0.5% phosphoric acid and dried. Radioactivity was measured by phosphorimaging and recorded on a Typhoon fluorescence imager (Molecular Dynamics). Data were plotted as rate (min^−1) versus ATP concentration and fitted to the Michaelis-Menten equation, v=[(kcat)[S]]/(Km+[S]), using Kaleidagraph software (Synergy) to extract kinetic parameters. When obtaining IC50 values for the inhibitors, 2% (v/v) DMSO was included in kinase reactions. In these cases ATP, peptide, and enzyme concentrations were 15 nM, 100 μM and 5 nM, respectively, while inhibitor concentrations ranged from 10,000-0.610 nM. In all cases, a ten-minute preincubation step between the kinase and the inhibitor preceded addition of ATP and a fifteen-minute reaction. The data was fitted to a sigmoidal dose-response curve using Prism 4.0c (GraphPad Software) to obtain IC50 values.

T338C c-Src [2] = biological target: T2, T338C c-Src (Gallus gallus (Chicken), UniProt P00523, T338C); experiment: In vitro kinase assay, T338C c-Src (c-Src-ES1); conditions: for fold increase in inhibition of T338C relative to WT c-Src: T338C vs WT c-Src; for fold drop in potency against T338C c-Src relative to compound 9: relative to isopropyl vinylsulfonamide 9
Protocol: as §1, with “In all cases, a ten-minute preincubation step between the kinase and the inhibitor preceded addition of ATP and a fifteen-minute reaction.” left out

c-Src-ES2 (T338C/V323A) = c-Src-ES2 (T338C/V323A) (Gallus gallus (Chicken), UniProt P00523, T338C/V323A); experiment: In vitro kinase assay, c-Src-ES2
Protocol: as §1

c-Src-ES3 (T338C/V323S) = c-Src-ES3 (T338C/V323S) (Gallus gallus (Chicken), UniProt P00523, T338C/V323S); experiment: In vitro kinase assay, c-Src-ES3; conditions: ES3 = T338C/V323S; read-out: c-Src variant IC50 (nM) ES3
Protocol: as §1

WT c-Src [3] = biological target: T1, WT c-Src; experiment: Gel filtration and kinetic assay, WT c-Src; conditions: 23 μM inhibitor, 25 minutes, then PD10 desalting
Protocol: (§2) Inhibitors (final concentration 23 μM) were incubated with c-Src variants (final concentration 11.5 μM) in kinase reaction buffer (50 mM Tris pH 8, 100 mM NaCl, 1 mM DTT, 5% glycerol, 5% DMSO) for 25 minutes at room temperature. The solutions (2.6 mL total) were then passed over PD10 desalting columns (GE Healthcare) using the kinase reaction buffer for elution. Src concentrations were calculated using the extinction coefficient for c-Src (51.140 mM^−1cm^−1) {Seeliger, 2005 #100}. Kinase assays were performed as described in the experimental section at a final enzyme concentration of 10 nM.

T338C c-Src [4] = biological target: T2, T338C c-Src; experiment: Gel filtration and kinetic assay, T338C c-Src; conditions: 23 μM inhibitor, 25 minutes, then PD10 desalting
Protocol: as §2

307 kinases = experiment: Kinome-wide profiling (SelectScreen Kinase Profiling Service); conditions: compounds at 1 μM, ATP at Km,app
Protocol: The percent inhibition results in FIG. were generated with biochemical enzymatic kinase assays using the SelectScreen® Kinase Profiling Service (Life Technologies Corporation, Madison, Wis.). Compounds were assayed at 1 μM at an ATP concentration equal to the ATP Km,app for the assay following the detailed procedures described in the SelectScreen® Customer Protocol and Assay Conditions documents located at www.invitrogen.com/kinaseprofiling.
Compounds that were profiled include, but are not limited to, 3, 4, 9, 13, and 20. […] The exocyclic amine mimics N6 of ATP and plays an important role in a hydrogen bonding interaction with the hinge region of kinases.

[5] = inhibitor preincubated with Src ten minutes prior to addition of ATP, read-out: WT c-Src IC50
[6] = inhibitor preincubated with Src ten minutes prior to addition of ATP, read-out: T338C c-Src IC50
[7] = 10 min preincubation with inhibitor prior to addition of ATP, read-out: IC50 against WT c-Src
[8] = 10 min preincubation with inhibitor prior to addition of ATP, read-out: IC50 against T338C c-Src

Compound	IC50 (WT c-Src [1]; [5]) [µM]	IC50 (T338C c-Src [2]; [6]) [nM]	other results
C=CS(=O)(=O)Nc1ccc(-c2nn(C(C)C)c3ncnc(N)c23)cc1 [Compound 5, N-(4-(4-amino-1-isopropyl-1H-pyrazolo[3,4-d]pyrimidin-3-yl)phenyl)ethenesulfonamide]	0.899	145	fold increase in inhibition of T338C relative to WT c-Src (T338C c-Src [2]): ~6 fold
C=CC(=O)Nc1cccc(Cc2nn(C(C)C)c3ncnc(N)c23)c1 [Compound 7, N-(3-((4-amino-1-isopropyl-1H-pyrazolo[3,4-d]pyrimidin-3-yl)methyl)phenyl)acrylamide]	> 5	2760	–
C=CS(=O)(=O)Nc1cccc(Cc2nn(C)c3ncnc(N)c23)c1 [Compound 15, N-(3-((4-amino-1-methyl-1H-pyrazolo[3,4-d]pyrimidin-3-yl)methyl)phenyl)ethenesulfonamide]	> 5	3160	fold drop in potency against T338C c-Src relative to compound 9 (T338C c-Src [2]): 21 fold
C=CS(=O)(=O)Nc1cccc(-c2nn(C(C)C)c3ncnc(N)c23)c1 [Compound 3, N-(3-(4-amino-1-isopropyl-1H-pyrazolo[3,4-d]pyrimidin-3-yl)phenyl)ethenesulfonamide]	1	111	IC50 (c-Src-ES2 (T338C/V323A); ES2 = T338C/V323A, read-out: c-Src variant IC50 (nM) ES2): 63 nM; change of inhibitor potency upon second-site Val323 mutations (c-Src-ES2 (T338C/V323A); c-Src-ES2 and c-Src-ES3 relative to c-Src-ES1): not modulated appreciably; IC50 (c-Src-ES3 (T338C/V323S)): 131 nM; IC50 (T338C c-Src [2]; ES1 = T338C, read-out: c-Src variant IC50 (nM) ES1): 111 nM; fold increase in inhibition of T338C relative to WT c-Src (T338C c-Src [2]): > 9 fold
C=CC(=O)Nc1ccc(Cc2nn(C(C)C)c3ncnc(N)c23)cc1 [Compound 8, N-(4-((4-amino-1-isopropyl-1H-pyrazolo[3,4-d]pyrimidin-3-yl)methyl)phenyl)acrylamide]	> 5	> 5000	–
Cc1ccc(-c2nn(C(C)(C)C)c3ncnc(N)c23)cc1 [PP1, reference compound]	–	–	inhibitory activity after gel filtration, WT c-Src (WT c-Src [3]): abrogated; inhibitory activity after gel filtration, T338C c-Src (T338C c-Src [4]): abrogated
C=CS(=O)(=O)Nc1cccc(Cc2nn(C(C)(C)C)c3ncnc(N)c23)c1 [Compound 16, N-(3-((4-amino-1-tert-butyl-1H-pyrazolo[3,4-d]pyrimidin-3-yl)methyl)phenyl)ethenesulfonamide]	> 5	618	fold drop in potency against T338C c-Src relative to compound 9 (T338C c-Src [2]): 4 fold
C=CS(=O)(=O)Nc1cccc(Cc2nn(C3CCCC3)c3ncnc(N)c23)c1 [Compound 17, N-(3-((4-amino-1-cyclopentyl-1H-pyrazolo[3,4-d]pyrimidin-3-yl)methyl)phenyl)ethenesulfonamide]	> 5	196	–
C=CS(=O)(=O)Nc1cccc(-c2nn(C(C)C)c3ncncc23)c1 [Compound 4, N-(3-(1-isopropyl-1H-pyrazolo[3,4-d]pyrimidin-3-yl)phenyl)ethenesulfonamide]	> 5	> 5000	IC50 (WT c-Src [1]; [7]): ≥ 5 µM; IC50 (T338C c-Src [2]; [8]): ≥ 5000 nM; off-target profile in kinome-wide screen (307 kinases): relatively few off-target effects
C=CC(=O)Nc1cccc(-c2nn(C(C)C)c3ncnc(N)c23)c1 [Compound 1, N-(3-(4-amino-1-isopropyl-1H-pyrazolo[3,4-d]pyrimidin-3-yl)phenyl)acrylamide]	2.32	419	–
CC(C)n1nc(-c2cccc(NC(=O)CCl)c2)c2c(N)ncnc21 [Compound 6, N-(3-(4-amino-1-isopropyl-1H-pyrazolo[3,4-d]pyrimidin-3-yl)phenyl)-2-chloroacetamide]	> 5	817	–
C=CC(=O)Nc1cccc(-c2nn(C(C)C)c3ncncc23)c1 [Compound 2, N-(3-(1-isopropyl-1H-pyrazolo[3,4-d]pyrimidin-3-yl)phenyl)acrylamide]	> 5	> 5000	IC50 (WT c-Src [1]; [7]): ≥ 5 µM; IC50 (T338C c-Src [2]; [8]): ≥ 5000 nM
C=CS(=O)(=O)Nc1ccc(Cc2nn(C(C)C)c3ncnc(N)c23)cc1 [Compound 10, N-(4-((4-amino-1-isopropyl-1H-pyrazolo[3,4-d]pyrimidin-3-yl)methyl)phenyl)ethenesulfonamide]	3.08	1760	–
CCS(=O)(=O)Nc1cccc(Cc2nn(C(C)C)c3ncnc(N)c23)c1 [Compound 11, N-(3-((4-amino-1-isopropyl-1H-pyrazolo[3,4-d]pyrimidin-3-yl)methyl)phenyl)ethanesulfonamide]	> 5	3500	fold drop in potency against T338C c-Src relative to compound 9 (T338C c-Src [2]): 23 fold
C=CC(=O)Nc1cccc(Nc2ncnc3cc(OC)c(OC)cc23)c1 [Compound 18, N-(3-(6,7-dimethoxyquinazolin-4-ylamino)phenyl)acrylamide]	> 5	1660	–
CC(C)n1nc(Cc2cccc(NC(=O)CCl)c2)c2c(N)ncnc21 [Compound 12, N-(3-((4-amino-1-isopropyl-1H-pyrazolo[3,4-d]pyrimidin-3-yl)methyl)phenyl)-2-chloroacetamide]	> 5	> 5000	–
